Assay results reported in patent US10370336B2, “Phenyl-cyanoquinolinone PDE9 inhibitors” (Merck Sharp & Dohme Corp., priority 2015, dated 2019).

Target: human PDE9 enzyme (PDE9A2) (Homo sapiens (Human), UniProt O76083)
Conditions: read-out: PDE9 IMAP Ki; IMAP FP assay, FAM-cGMP substrate 50 nM, apparent inhibition constant
Text: Dose-inhibition profiles for each compound were characterized by fitting the mP data to a four-parameter equation given below.

Chain of human PDE9 enzyme (PDE9A2) (O76083 other isoform, or with tags, fused parts or gaps): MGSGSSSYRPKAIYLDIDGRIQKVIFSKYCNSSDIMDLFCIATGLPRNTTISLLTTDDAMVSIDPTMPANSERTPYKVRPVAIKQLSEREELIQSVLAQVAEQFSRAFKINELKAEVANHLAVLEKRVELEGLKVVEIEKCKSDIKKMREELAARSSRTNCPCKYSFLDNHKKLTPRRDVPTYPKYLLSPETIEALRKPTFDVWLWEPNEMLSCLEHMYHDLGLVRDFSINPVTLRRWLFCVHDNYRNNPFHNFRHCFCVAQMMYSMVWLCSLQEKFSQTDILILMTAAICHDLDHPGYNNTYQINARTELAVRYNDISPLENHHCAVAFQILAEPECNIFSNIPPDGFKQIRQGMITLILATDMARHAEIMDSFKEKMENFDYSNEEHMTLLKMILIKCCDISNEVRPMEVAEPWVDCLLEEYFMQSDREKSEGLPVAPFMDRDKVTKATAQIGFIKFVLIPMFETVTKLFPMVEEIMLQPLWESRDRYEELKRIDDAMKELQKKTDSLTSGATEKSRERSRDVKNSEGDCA

## Cc1ccc(-c2c(C#N)c(=O)[nH]c3ccccc23)cc1 [Example 1-9, 2-oxo-4-(p-tolyl)-1H-quinoline-3-carbonitrile]
  Ki: 8.9 nM
